Measurements published in EP3325012B1, “CINEOLE-CONTAINING COMPOSITION FOR TREATING NOSE POLYPS” (Maria Clementine Martin Klosterfrau Vertriebsgesellschaft …, priority 2015, dated 2017).

Tests used:
Polyposis nasi et sinuum = experiment: Cell vitality of polyp single-cell suspensions in culture; format: cell-based, Mensch; conditions: 1mM Cineol versus standard medium, culture over 288 Stunden; effect after 96 bis 144 Stunden; polyps of 5 patients
Description: Proben von Nasenpolypen wurden in PBS-Puffer gewaschen und in sterilem serumfreiem "High Glucose Dulbecco's Modified Eagle Medium" (PAA, Pasching, Österreich) mit einer Skalpellklinge vorsichtig in kleine Stücke zerkleinert, wobei das Medium 1 % L-Glutamin, 1 % Natriumpyruvat, 1 % nichtessentielle Aminosäuren, 2 % Amphotericin B, 2 % Streptomycin und 2 % Penicillin, ergänzt mit 10 % FCS, und 25 mM HEPES Puffer, enthielt (alle von PAA, Pasching, Österreich). Danach wurden die Gewebeproben durch eine enzymatische Behandlung und Waschschritte mit Collagenase Typ II (31,5 mg/ml, GIBCO, Eggenstein, Deutschland) und Hyaluronidase (3,99 mg/ml, Sigma, München, Deutschland) in einem ersten Schritt und mit Dispase (33,4 mg/ml, Sigma, München, Deutschland) in einem zweiten Schritt jeweils unter Schütteln bei 37 °C für 120 Minuten enzymatisch verdaut. Zwischen den enzymatischen Behandlungen und den Waschschritten wurden die Zellen zentrifugiert. Die resultierenden Zellsuspensionen wurden in PBS (PAA, Pasching, Österreich), enthaltend 2 % BSA, gewaschen und jeweils durch einen 70 µm und einen 60 µm Nylon-Zellfilter (Falcon, Becton Dickinson Labware, Heidelberg, Deutschland) filtriert.
Erste Vorversuche zum Einfluss von Cineol auf die Progression von Polyposis nasi et sinuum wurden durchgeführt. […]

HNSCC-Zelllinien = experiment: MTT assay, vitality and proliferation of HNSCC cell lines; format: cell-based; conditions: 1 mM bis 10 mM, 250 Stunden, two cell lines
Description: (§1) Es wurden weiterführende Untersuchungen durchgeführt zur Analyse des Einflusses von Cineol auf die Vitalität und Proliferation verschiedener permanenter Zelllinien. Hierzu wurden einerseits die zwei HNSCC-Zelllinien und des Weiteren eine Fibroblastenzelllinie verwendet. Diese wurden über einen Zeitraum von 250 Stunden mit verschiedenen Cineol-Konzentrationen kultiviert (1 mM bis 10 mM) und die Vitalität der Zellen wurde jeweils mittels eines MTT-Assays untersucht.

[1] = tested on: Patienten mit Polyposis nasi et sinuum; format: in vivo, Mensch
Excerpt: Im Rahmen einer klinischen Anwendung erhielten 22 Patienten nach einer Nasennebenhöhlenoperation zusätzlich zu einer Standardmedikation 1,8-Cineol (Soledum forte®), 3-mal 1 Kapsel, über einen Zeitraum von 3 Monaten. Die präoperativen CT-Bilder wurden nach dem Lund-Mackay-Score bewertet. Die Patienten wurden gebeten, ihre Beschwerden mittels eines Fragebogens (SNOT20 - German adapted version) einzuschätzen. 21 von 22 Patienten beendeten die Therapie wie vorgesehen. Ein Patient berichtete über gastrointestinale Nebenwirkungen und brach die Behandlung mit 1,8-Cineol ab. […] Somit war ein gutes Ansprechen auf die zusätzliche medikamentöse Behandlung mit 1,8-Cineol bei einem tolerablen Nebenwirkungsprofil zu beobachten.

[2] = tested on: allen untersuchten Zellspezies; experiment: Vitality/proliferation, summary over all cell species investigated; format: cell-based; conditions: 10mM
Description: Erste Vorversuche zum Einfluss von Cineol auf die Progression von Polyposis nasi et sinuum wurden durchgeführt. Hierzu wurden zunächst Einzelzellsuspensionen hergestellt und diese wurden in der Zellkultur über einen Zeitraum von 288 Stunden mit Standardmedium und mit 1mM Cineol inkubiert.
as §1
Hierbei zeigte sich ein ähnliches Bild wie in den vorhergegangenen Untersuchungen zum Einfluss von Cineol auf die Vitalität von Polyposis nasi et sinuum-Einzelzellsupensionen, wobei sich jedoch die permanenten Zelllinien erst zu geringfügig späteren Zeitpunkten und bei geringfügig höheren Cineol-Konzentrationen signifikant in ihrer Proliferation beeinflussen ließen. […]

Akt = experiment: Western blot of Akt and P-Akt in nasal polyp protein extracts; format: cell-based, Mensch; conditions: 100 µM; all analysed protein extracts of nasal polyps (Figur 5)
Description: Lysate von Geweben wurden durch Erhitzen über einen Zeitraum von 5 Minuten in einfachem SDS-Probenpuffer (Carl Roth GmbH, Karlsruhe, Deutschland) denaturiert. Die Proteinkonzentrationen wurden mittels des Bradford-Tests bestimmt und jeweils 30 µg Gesamtprotein wurden zur SDS-Polyacrylamid-Gel Elektrophorese eingesetzt (Mini-Protean TGX®, Any kD, BioRad, Hercules, CA, USA) und anschließend auf Nitrozellulosemembranen übertragen. Die Übertragung der Proteine wurde mittels Ponceau-Färbung kontrolliert.
Neben der Phosphorylierung an Serin-9/-21 wird die GSK-3-Aktivität auch auf dem Level seiner subzellulären Lokalisierung reguliert. GSK-3 kann zur Trennung von seinen Substraten in endolysosomale Vesikel verlagert werden, um die Kinase-Aktivität zu verringern. […] GSK-3 ist in die Regulation von zahlreichen biosynthetischen Signalwegen involviert und zahlreiche Kinasen sind in der Lage, die GSK-3-Aktivität durch Phosphorylierung an dessen aktivierenden oder hemmenden Phosphorylierungsstellen zu regulieren. Die Akt-Kinase (auch bekannt als PKB) wurde als Onkogen mit Serin/Threonin-Kinase-Aktivität identifiziert und es wurde gezeigt, dass diese in vivo einen negativen Regulator der GSK3-beta Aktivität darstellt. Akt kann durch Phosphorylierung an Serin-473 durch PDK1 aktiviert werden, wobei davon ausgegangen wird, dass PHLPP als Inhibitor von dessen Phosphorylierung fungiert. […]

[3] = tested on: kultivierte Zellen aus der Nasenschleimhaut; experiment: Proliferation of cultured nasal mucosa (epithelial) cells; format: cell-based, Mensch; conditions: treatment with 1,8-Cineol (Figur 2B)
Excerpt: Material und Methoden: Die Anmelderin hat Gewebeproben aus Nasenpolypen und unteren Nasenmuscheln von Patienten mit CRSwNP (chronischer Rhinosinusitis mit Nasenpolypen) und aus unteren Nasenmuscheln von Probanden ohne chronische Sinusitis (gesunde Schleimhaut) auf Basis von immunohistochemischen Methoden und Immunoblot-Verfahren untersucht. Die zelluläre Proliferation und Migration wurden unter Einsatz des xCELLigence Real Time Cell Analyzer untersucht.
Die Zellproliferation wurde mittels eines quantitativen kolorimetrischen 3-(4,5-Dimethylthiazol 2-yl)-2,5-diphenyltetrazoliumbromid-basierten (MTT) Zelltests bestimmt. Dieser Test bestimmt die Anzahl an lebensfähigen Zellen auf Basis der mitochondrialen Umwandlung von MTT.
Die Proliferation wurde mittels eines MTT-Tests von Sigma-Aldrich ("In Vitro Toxicology Assay Kit") entsprechend den Instruktionen des Herstellers ermittelt.
Im Vergleich zur gesunden Nasenschleimhaut weisen Nasenpolypen eine andere Morphologie auf, was anhand von immunohistochemischen Färbungen mit Hämatoxylin-Eosin (HE) an gefrorenen Gewebeschnitten gezeigt werden konnte (Figur 1). Mit dieser Färbemethode werden basophile Strukturen mit Blau-Lila und eosinophile Strukturen mit hellem Pink angefärbt, wohingegen hydrophobe Strukturen, wie die Membranen des Golgi-Apparats, ungefärbt bzw. klar bleiben. […]

**Q.** Which results are given for `CC12CCC(CC1)C(C)(C)O2` [1,8-Cineol, 1,3,3-Trimethyl-2-oxabicyclo[2.2.2]octan]?
**A.** Zellvitalität (Polyposis nasi et sinuum): massiven Abfall; Progression und Vitalität von HNSCC (HNSCC-Zelllinien): inhibierender Einfluss; SNOT-20-Score ([1]; first orienting evaluation, compared with preoperative results): deutliche Verbesserung; Rezidivpolyposis ([1]; follow-up examination after 6 months): lediglich bei einem Patienten eine beginnende geringfügige Rezidivpolyposis; gastrointestinale Nebenwirkungen ([1]; in vivo): Ein Patient; zytotoxische Wirkung [2]: deutlich zytotoxischen Wirkung; Phosphorylierungslevel von Akt an Serin-473 (Akt): nicht wesentlich beeinflusst; Proliferation kultivierter Zellen aus der Nasenschleimhaut [3]: nicht beeinflusst
